Results published in US20170166592A1, “AZA-BENZIMIDAZOLE INHIBITORS OF PAD4” (Padlock Therapeutics, Inc., priority 2015, published 2017).
Read-outs that look alike come from different tables or passages of the source.

Legend:
hPAD4 = hPAD4 (Homo sapiens, UniProt Q9UM07); assay: PAD4 inhibition assay, RapidFire mass spectrometry (hPAD4 RFMS); assay type: biochemical
Protocol: Compounds of the present invention were assayed as inhibitors of PAD4 using the assay protocol described below.
Compounds were solubilised in 100% DMSO to achieve 100 mM final compound concentration. Compound stock solutions were stored at RT. A series of dilutions were prepared in DMSO and mixed 8 times with 20 μL, mixing volume. Final assay conditions were as follows:
Assay buffer (as aforementioned): 100 mM Tris-HCl (pH 7.6), 2 mM DTT, 1 mM CaCl2
Final concentrations: • 100 nM hPAD4 enzyme • 50 μM (8-fold sub-Km) substrate peptide • 0.5% DMSO
Total incubation time: 65 mins at 37° C.
Stop solution: 40 μl 5% TCA in ACN
0.25 μL of compound solution was added to 10 μL of 200 nM PAD4 in assay buffer (100 mM Tris-HCl pH 7.6, 2 mM DTT). After 5 mins, 10 μL of 100 μM of substrate in buffer (100 mM Tris-HCl pH 7.6, 2 mM DTT, 2 mM CaCl2) was added and the reaction incubated for 60 mins at 37 ° C. The enzymatic reaction was quenched by addition of 40 μl of 5% TCA in ACN (1.7% TCA final concentration) stop solution. Arginine containing substrate and citrulline containing product (+1 Da mass shift) were subjected to solid phase extraction on Agilent RapidFire (RF) 300 system and detected on a coupled, triple quadrupole Agilent 6460 QQQ mass spectrometry (MS) device under application of multiple reaction monitoring (MRM) for quantitation.

mPAD4 = mPAD4 (Mus musculus, UniProt Q9Z183); assay: PAD4 inhibition assay, RapidFire mass spectrometry (mPAD4 RFMS); assay type: biochemical
[1] = 100 nM hPAD4 enzyme, 50 μM substrate peptide, 65 mins at 37° C., read-out: hPAD4 RFMS IC50
[2] = pIC50=-log(IC50), read-out: hPAD4 RFMS pIC50 (converted)
[3] = pIC50=-log(IC50), read-out: mPAD4 RFMS pIC50 (converted)

Measured: IC50

Chain of mPAD4 (Q9Z183 whole entry): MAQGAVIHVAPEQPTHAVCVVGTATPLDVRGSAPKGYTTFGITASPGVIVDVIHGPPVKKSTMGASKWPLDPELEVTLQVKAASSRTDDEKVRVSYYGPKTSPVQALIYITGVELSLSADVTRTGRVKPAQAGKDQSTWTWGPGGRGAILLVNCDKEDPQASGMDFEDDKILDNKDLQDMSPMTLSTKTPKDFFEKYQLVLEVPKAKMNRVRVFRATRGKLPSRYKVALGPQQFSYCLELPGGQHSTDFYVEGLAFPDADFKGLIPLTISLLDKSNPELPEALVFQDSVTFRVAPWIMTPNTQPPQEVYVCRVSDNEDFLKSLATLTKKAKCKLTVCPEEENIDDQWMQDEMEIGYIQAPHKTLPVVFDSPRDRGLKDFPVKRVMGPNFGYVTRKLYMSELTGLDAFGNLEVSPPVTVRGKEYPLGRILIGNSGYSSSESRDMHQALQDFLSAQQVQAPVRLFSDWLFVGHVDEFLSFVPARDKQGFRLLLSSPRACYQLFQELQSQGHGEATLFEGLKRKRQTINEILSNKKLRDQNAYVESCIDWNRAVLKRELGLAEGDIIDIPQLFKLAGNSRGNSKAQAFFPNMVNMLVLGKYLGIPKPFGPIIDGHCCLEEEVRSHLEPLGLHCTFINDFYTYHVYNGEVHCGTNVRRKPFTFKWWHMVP
Chain of hPAD4 (Q9UM07 whole entry): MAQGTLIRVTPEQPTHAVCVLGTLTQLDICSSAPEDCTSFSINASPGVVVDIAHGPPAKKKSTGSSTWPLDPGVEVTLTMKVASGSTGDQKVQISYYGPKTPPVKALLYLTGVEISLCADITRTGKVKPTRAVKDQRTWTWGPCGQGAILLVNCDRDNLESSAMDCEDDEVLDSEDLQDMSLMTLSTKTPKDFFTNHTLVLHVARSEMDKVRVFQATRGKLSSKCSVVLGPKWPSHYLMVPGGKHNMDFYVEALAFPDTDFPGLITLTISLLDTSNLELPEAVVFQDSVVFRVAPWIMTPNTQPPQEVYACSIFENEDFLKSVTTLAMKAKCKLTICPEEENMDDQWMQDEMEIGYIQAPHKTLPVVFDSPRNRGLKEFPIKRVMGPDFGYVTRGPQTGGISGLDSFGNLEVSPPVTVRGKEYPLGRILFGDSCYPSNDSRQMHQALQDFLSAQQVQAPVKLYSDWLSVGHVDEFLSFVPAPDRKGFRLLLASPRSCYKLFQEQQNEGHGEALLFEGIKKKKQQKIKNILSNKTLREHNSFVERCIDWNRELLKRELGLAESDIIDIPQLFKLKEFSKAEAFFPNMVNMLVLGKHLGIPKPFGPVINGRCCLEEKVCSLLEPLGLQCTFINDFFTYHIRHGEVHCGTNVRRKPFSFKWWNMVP

CO[C@]1(C)C[C@H](Cn2c(-c3cc4cccnc4n3CC3CC3)nc3cc(C(=O)N4C[C@H]5CC[C@@H]4[C@@H]5N)cnc32)C1 [Compound I-50]
≤ 1 µM: hPAD4; [1] | hPAD4; [2] | mPAD4; [3] | mPAD4; read-out: mPAD4 RFMS IC50

CCn1c(-c2nc3cc(C(=O)N4C[C@H]5CC[C@@H]4[C@@H]5N)cnc3n2C[C@H]2C[C@@](C)(OC)C2)cc2ccc(OC)nc21 [Compound I-51]
≤ 1 µM: hPAD4; [1] | hPAD4; [2] | mPAD4; [3] | mPAD4; read-out: mPAD4 RFMS IC50

Cn1c(-c2cc3ccc(C(F)(F)F)nc3n2CC2CC2)nc2cc(C(=O)N3C[C@H]4CC[C@@H]3[C@@H]4N)cnc21 [Compound I-52]
≤ 1 µM: hPAD4; [1] | hPAD4; [2] | mPAD4; [3] | mPAD4; read-out: mPAD4 RFMS IC50

COc1ccc2cc(-c3nc4cc(C(=O)N5C[C@H]6CC[C@@H]5[C@@H]6N)cnc4n3C[C@H]3C[C@@](C)(OC)C3)n(CC3CC3)c2n1 [Compound I-53]
≤ 1 µM: hPAD4; [1] | hPAD4; [2] | mPAD4; [3] | mPAD4; read-out: mPAD4 RFMS IC50

N[C@@H]1[C@@H]2CC[C@H]1N(C(=O)c1cnc3c(c1)nc(-c1cc4cccnc4n1CC1CC1)n3CC(F)F)C2 [Compound I-54]
≤ 1 µM: hPAD4; [1] | hPAD4; [2] | mPAD4; [3] | mPAD4; read-out: mPAD4 RFMS IC50
